The results in this text go back to patent publication US11976054B2, “Amide derivative and preparation method therefore and use thereof in medicine” (Chengdu Baiyu Pharmaceutical Co., Ltd., priority 2019, dated 2024).

A word on the IC50: it is the concentration that inhibits the measured activity by half. Low values mean higher potency, high ones lower potency. The AUC is concentration integrated over time. The Vss is the apparent volume that relates the amount in the body to the concentration in plasma or blood. Read a low Vss as confinement near the circulation. The term Cmax denotes the peak of the concentration-time curve. The Vd is a proportionality between amount in the body and measured concentration, not a real space. A high value points to wide distribution into tissue. As usually defined, the clearance is a measure of how efficiently the substance is removed, as volume per time. Higher therefore signals efficient removal. In general, half-life refers to the time in which the quantity being followed falls by half. As usually defined, the bioavailability is dose-corrected exposure relative to a reference, in per cent. A higher bioavailability goes with much systemic uptake.

Series [1] has as its system Human monocyte cell line THP-1. In words: Detection of THP-1 cell pyroptosis (Caspase-Glo 1 Inflammasome Assay). Type of series: cell-based. The following applies: 20 nM PMA 48 h, 1 μg/mL LPS, compound 3 h. In a few lines:
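Differentiated with 20 nM PMA for 48 h (50,000 cells/well), then given serum-free medium with 1 μg/mL LPS and compound in a 10-point, 3-fold series from 10 μM for 3 h at 37 °C. Caspase-1 activity read with Caspase-Glo 1 Inflammasome kit; IC50 calculated.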

Series [2] deals with IL-1β release in human PBMCs. As to the kind of experiment: Assay of IL-1β release in human PBMCs. The following applies: 10 ng/mL LPS 3 h, compound 0.5 h, 5 mM ATP 1 h, ELISA. Type of series: cell-based. Here is the method: 5 mL of human venous whole blood from a healthy donor was placed in a Li-heparin tube. PBMCs were isolated and incubated in a culture medium containing 10 ng/mL LPS at 37° C./5% CO2 for 3 h. Cells were plated in a 96-well plate at 50 μL per well. 25 μL of compound or solvent control was added to each well and 3-fold diluted in gradient from a maximum concentration of 10 μM, and 8 gradient concentrations were set. The mixtures were incubated for 0.5 h. 25 μL of ATP at a final concentration of 5 mM was added to each well, and the resulting mixtures were incubated for 1 h. After the incubation, the mixtures were centrifuged at 1500 rpm for 20 min, and the supernatant was collected to detect the expression level of […] by ELISA (BD, Human IL-1β ELISA Set II, Cat #557953). IC50 was calculated using GraphPad Prism7.0 software. The results are shown in Table 2, which indicate that: the compounds disclosed herein down-regulate release of mature IL-1β by inhibiting the activity of Caspase-1, and the IC50 is <50 nM.
On the technique in general: In an ELISA, binding on a coated surface is turned into a signal by an enzyme label.

Series [3] can be described thus: Pharmacokinetic analysis of compounds in rats. The following applies: for F %: po 10 mg/kg vs iv 1 mg/kg. Format: in vivo, SD rats. In a few lines: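 Fasted SD rats (180–220 g) dosed by tail vein or intragastrically. Orbital-plexus blood sampled pre-dose and from 5 min to 24 h. Plasma parent drug quantified by LC-MS/MS.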
Series [4] relates to Rat dorsal air pouch models. In words: Rat dorsal air pouch pharmacodynamic models (sodium urate). Format: in vivo, SD rats. The following applies: air pouch exudate 5 h after 1% sodium urate; for IL-1β concentration in exudate: ELISA. The method, then:
Healthy adult male SD rats weighing 180-220 g were purchased, and rat dorsal air pouch models were constructed after adaptive feeding of the rats. On day 1, day 4 and day 7 of modeling, 20 mL of sterile air was injected subcutaneously into the back of rats by means of injection needles, and the air pouch was maintained at an inflated state. On day 8, 50 mg/kg compound or vehicle control was administered intragastrically. 5 mL of 1% sodium urate suspension was injected into the dorsal air pouch, and air pouch exudate was collected 5 h later. 40 μL of the exudate was taken for leukocyte counting. The remaining exudate was centrifuged at 1500 rpm for 20 min, and the supernatant was collected to detect the expression level of IL-1β by ELISA (BD, Human IL-1β ELISA Set II, Cat #557953).

The mark [5] stands for this setting: SD rats, iv (tail vein), 1 mg/kg, plasma.
[6] abbreviates: SD rats, po (intragastric), 10 mg/kg, plasma.

In the case of `CC(c1ccc2c(c1NC(=O)NS(=N)(=O)c1cc(C(C)(C)O)co1)CCC2)C1CC1` (racemic) [Compound 8-1, (RS, SC)- and (SS, SC)-N-((5-(1-cyclopropylethyl)-2,3-dihydro-1H-inden-4-yl)carbamoyl)-4-(2-hydroxypropan-2-yl)furan-2-sulfonimidamide], the IC50 in series [1] (THP-1 pyroptosis) is at most 0.1 µM. This molecule also gave an IC50 in series [2] of 0.0263 µM. For the same molecule, in series [3] (setting [5]), the “AUC” value came to 2557 ng·h/mL, the “Cl” value was found to be 6.8 mL/min/kg, the “Vss” value worked out at 0.296 L/kg and the “t1/2” value is listed as 0.74 h. The same molecule had a F % in series [3] (SD rats) of 56.2%. Further, in series [3] (setting [6]), the “AUC” value was 14367 ng·h/mL, the “Cmax” value was found to be 6397 ng/mL and the “t1/2” value is 2.4 h. Besides, in series [4] (50 mg/kg intragastric), the “Leukocyte concentration (10^6/mL)” value was 2.25 ± 0.5 10^6/mL and the “IL-1β concentration in exudate” value turned out to be 1522.5 ± 313.2 pg/mL.

`CC(C)(O)c1coc(S(=N)(=O)NC(=O)Nc2c(CC3CCC3)ccc3c2CCC3)c1` (single isomer, unassigned) [Compound 18-2, RS- and SS-N-((5-(cyclobutylmethyl)-2,3-dihydro-1H-inden-4-yl)carbamoyl)-4-(2-hydroxypropan-2-yl)furan-2-sulfonimidamide] gave an IC50 in series [1] (THP-1 pyroptosis) of at most 0.1 µM. In series [2], this molecule gave an IC50 of 0.0112 µM. In series [3] (rat, in vivo, iv, 1 mg/kg), the “AUC” value was found to be 3691 ng·h/mL, the “Cl” value amounted to 5.6 mL/min/kg, the “Vss” value stood at 0.346 L/kg and the “t1/2” value was 0.86 h. Besides, in series [3] (rat, in vivo, po, 10 mg/kg), the “AUC” value amounted to 28427 ng·h/mL, the maximum concentration (Cmax) was 16600 ng/mL and the “t1/2” value is given as 3.1 h. Also, in series [4] (50 mg/kg intragastric), the “Leukocyte concentration (10^6/mL)” value is recorded as 1.72 ± 0.3 10^6/mL and the “IL-1β concentration in exudate” value was found to be 795.5 ± 232.8 pg/mL.

Turning to `COc1cc2c(c(OC)c1OC)-c1ccc(OC)c(=O)cc1[C@@H](NC(C)=O)CC2` [Colchicine, reference compound], in series [4] (30 mg/kg), the “Leukocyte concentration (10^6/mL)” value is given as 3.40 ± 0.7 10^6/mL and the “IL-1β concentration in exudate” value was 1190.9 ± 463.6 pg/mL.

In turn, `C[C@@H](c1ccc2c(c1NC(=O)NS(=N)(=O)c1cc(C(C)(C)O)co1)CCC2)C1CC1` (mixture of isomers) [Compound 6-1, (RS, RC)- and (SS, RC)-N-((5-(-1-cyclopropylethyl)-2,3-dihydro-1H-inden-4-yl)carbamoyl)-4-(2-hydroxypropan-2-yl)furan-2-sulfonimidamide] showed an IC50 in series [1] (THP-1 pyroptosis) of at most 0.1 µM. Moreover, in series [3] (setting [5]), the “AUC” value is 6312 ng·h/mL, the “Cl” value worked out at 2.7 mL/min/kg, the volume of distribution (Vss) was 0.26 L/kg and the “t1/2” value is listed as 1.6 h. In series [3] (SD rats), this molecule had a F % of 65.8%. Also, in series [3] (setting [6]), the area under the curve (AUC) came to 41521 ng·h/mL, the “Cmax” value is reported as 13900 ng/mL and the “t1/2” value turned out to be 2.5 h. In series [4] (50 mg/kg intragastric), the “Leukocyte concentration (10^6/mL)” value is 1.99 ± 0.4 10^6/mL and the “IL-1β concentration in exudate” value is reported as 895.7 ± 266.4 pg/mL.

As for `Cc1oc(S(=N)(=O)NC(=O)Nc2c(CC3CCC3)ccc3c2CCC3)cc1C(C)(C)O` (centres unmarked) [Compound 21-1, RS- and SS-N-((5-(cyclobutylmethyl)-2,3-dihydro-1H-inden-4-yl)carbamoyl)-4-(2-hydroxypropan-2-yl)-5-methylfuran-2-sulfonimidamide], in series [1] (THP-1 pyroptosis), the concentration for half-maximal inhibition (IC50) was at most 0.1 µM. 0.0262 µM corresponded to half-maximal inhibition in series [2] (IC50). In series [3] (rat, in vivo, iv, 1 mg/kg), the “AUC” value stood at 2404 ng·h/mL, the “Cl” value is 7.4 mL/min/kg, the “Vss” value is 0.371 L/kg and the “t1/2” value came out at 0.65 h. In series [3] (rat, in vivo, po, 10 mg/kg), the “AUC” value came out at 37246 ng·h/mL, the maximum concentration (Cmax) came out at 12717 ng/mL and the “t1/2” value is 2.3 h.

As for `C[C@@H](c1cc(F)c2c(c1NC(=O)N[S@@](=N)(=O)c1cc(C(C)(C)O)co1)CCC2)C1CC1` (single isomer, unassigned) [Compound 42-2], in series [1] (Homo sapiens, THP-1, THP-1 pyroptosis), the IC50 was at most 0.1 µM. In series [2] (PBMC), inhibition was half-maximal at 0.0032 µM (IC50). In series [3] (SD, rat, in vivo, iv, 1 mg/kg), this molecule showed an AUC of 1980 ng·h/mL, a Vd of 0.503 L/kg, a clearance of 8.6 mL/min/kg and a half-life of 0.79 h. The bioavailability in series [3] (SD, rat, in vivo, po) is 87.2%. Also, in series [3] (SD, rat, in vivo, po, 10 mg/kg), the AUC came out at 17300 ng·h/mL, the Cmax stood at 8500 ng/mL and the half-life is 2.1 h.

For the molecule “(RS, SC)- and (SS, SC)-N-((5-(1-cyclobutylethyl)-2,3-dihydro-1H-inden-4-yl)carbamoyl)-4-(2-hydroxypropan-2-yl)furan-2-sulfonimidamide [Compound 82-1]”, in series [1] (THP-1 pyroptosis), the IC50 lay within 0.1 to 0.5 µM. The molecule also returned a half-maximal inhibitory concentration (IC50) in series [2] of 0.0052 µM. In series [3] (setting [5]), the “AUC” value amounted to 2228 ng·h/mL, the “Cl” value turned out to be 11.2 mL/min/kg, the “Vss” value was 0.379 L/kg and the “t1/2” value is 0.70 h. Further, in series [3] (SD rats), the F % stood at 74.0%. Moreover, in series [3] (setting [6]), the “AUC” value came to 16478 ng·h/mL, the “Cmax” value came to 5883 ng/mL and the “t1/2” value was 2.3 h.
